Data reported in the NIST ThermoML archive (doi:10.1021/je900503p).

What was measured:
[1] = refractive index (Na D-line) (dimensionless); xn = mol fraction of the nth substance listed; conditions: 101 kPa, Liquid
[2] = relative permittivity at zero frequency (dimensionless); xn = mol fraction of the nth substance listed; conditions: 101 kPa, Liquid, Dekameter
[3] = xn = mol fraction of the nth substance listed; conditions: 101 kPa, Liquid

O=C1CCCO1 [γ-butyrolactone] + CCC(C)O
Conditions	mass density [kg/m3]	refractive index	relative permittivity at zero frequency
[1], 293.15 K, x1 = 0.1009	–	1.4004	–
[1], 293.15 K, x1 = 0.2112	–	1.4009	–
[1], 293.15 K, x1 = 0.3009	–	1.4021	–
[1], 293.15 K, x1 = 0.4008	–	1.4043	–
[1], 293.15 K, x1 = 0.5088	–	1.4076	–
[1], 293.15 K, x1 = 0.6003	–	1.4112	–
[1], 293.15 K, x1 = 0.7001	–	1.4162	–
[1], 293.15 K, x1 = 0.8055	–	1.4221	–
[1], 293.15 K, x1 = 0.9011	–	1.4285	–
[1], 298.15 K, x1 = 0.1009	–	1.3976	–
[1], 298.15 K, x1 = 0.2112	–	1.3978	–
[1], 298.15 K, x1 = 0.3009	–	1.3986	–
[1], 298.15 K, x1 = 0.4008	–	1.4005	–
[1], 298.15 K, x1 = 0.5088	–	1.4036	–
[1], 298.15 K, x1 = 0.6003	–	1.4071	–
[1], 298.15 K, x1 = 0.7001	–	1.4119	–
[1], 298.15 K, x1 = 0.8055	–	1.4175	–
[1], 298.15 K, x1 = 0.9011	–	1.4236	–
[1], 303.15 K, x1 = 0.1009	–	1.394	–
[1], 303.15 K, x1 = 0.2112	–	1.3943	–
[1], 303.15 K, x1 = 0.3009	–	1.3952	–
[1], 303.15 K, x1 = 0.4008	–	1.3974	–
[1], 303.15 K, x1 = 0.5088	–	1.4004	–
[1], 303.15 K, x1 = 0.6003	–	1.4036	–
[1], 303.15 K, x1 = 0.7001	–	1.4082	–
[1], 303.15 K, x1 = 0.8055	–	1.4135	–
[1], 303.15 K, x1 = 0.9011	–	1.4195	–
[1], 313.15 K, x1 = 0.1009	–	1.3909	–
[1], 313.15 K, x1 = 0.2112	–	1.3906	–
[1], 313.15 K, x1 = 0.3009	–	1.3912	–
[1], 313.15 K, x1 = 0.4008	–	1.3925	–
[1], 313.15 K, x1 = 0.5088	–	1.3952	–
[1], 313.15 K, x1 = 0.6003	–	1.3984	–
[1], 313.15 K, x1 = 0.7001	–	1.4023	–
[1], 313.15 K, x1 = 0.8055	–	1.4078	–
[1], 313.15 K, x1 = 0.9011	–	1.4133	–
[2], 293.15 K, x1 = 0.1009	–	–	17.91
[2], 293.15 K, x1 = 0.2112	–	–	19.08
[2], 293.15 K, x1 = 0.3009	–	–	20.56
[2], 293.15 K, x1 = 0.4008	–	–	22.53
[2], 293.15 K, x1 = 0.5088	–	–	25.16
[2], 293.15 K, x1 = 0.6003	–	–	27.69
[2], 293.15 K, x1 = 0.7001	–	–	30.91
[2], 293.15 K, x1 = 0.8055	–	–	34.66
[2], 293.15 K, x1 = 0.9011	–	–	38.29
[2], 298.15 K, x1 = 0.1009	–	–	16.66
[2], 298.15 K, x1 = 0.2112	–	–	17.89
[2], 298.15 K, x1 = 0.3009	–	–	19.48
[2], 298.15 K, x1 = 0.4008	–	–	21.48
[2], 298.15 K, x1 = 0.5088	–	–	24.01
[2], 298.15 K, x1 = 0.6003	–	–	26.59
[2], 298.15 K, x1 = 0.7001	–	–	29.67
[2], 298.15 K, x1 = 0.8055	–	–	33.02
[2], 298.15 K, x1 = 0.9011	–	–	37.47
[2], 303.15 K, x1 = 0.1009	–	–	16.75
[2], 303.15 K, x1 = 0.2112	–	–	18.21
[2], 303.15 K, x1 = 0.3009	–	–	19.37
[2], 303.15 K, x1 = 0.4008	–	–	21.28
[2], 303.15 K, x1 = 0.5088	–	–	23.71
[2], 303.15 K, x1 = 0.6003	–	–	26.26
[2], 303.15 K, x1 = 0.7001	–	–	29.48
[2], 303.15 K, x1 = 0.8055	–	–	33.39
[2], 303.15 K, x1 = 0.9011	–	–	36.73
[2], 313.15 K, x1 = 0.1009	–	–	16.09
[2], 313.15 K, x1 = 0.2112	–	–	17.48
[2], 313.15 K, x1 = 0.3009	–	–	18.55
[2], 313.15 K, x1 = 0.4008	–	–	20.43
[2], 313.15 K, x1 = 0.5088	–	–	22.86
[2], 313.15 K, x1 = 0.6003	–	–	25.55
[2], 313.15 K, x1 = 0.7001	–	–	28.79
[2], 313.15 K, x1 = 0.8055	–	–	32.73
[2], 313.15 K, x1 = 0.9011	–	–	36.05
[3], 293.15 K, x1 = 0.0564	820.99	–	–
[3], 293.15 K, x1 = 0.1213	839.11	–	–
[3], 293.15 K, x1 = 0.2541	877.55	–	–
[3], 293.15 K, x1 = 0.3003	891.34	–	–
[3], 293.15 K, x1 = 0.3895	918.62	–	–
[3], 293.15 K, x1 = 0.4574	939.95	–	–
[3], 293.15 K, x1 = 0.5005	953.71	–	–
[3], 293.15 K, x1 = 0.5876	982.13	–	–
[3], 293.15 K, x1 = 0.6442	1001.11	–	–
[3], 293.15 K, x1 = 0.7127	1024.55	–	–
[3], 293.15 K, x1 = 0.8006	1055.41	–	–
[3], 293.15 K, x1 = 0.8554	1075.08	–	–
[3], 293.15 K, x1 = 0.9262	1101.09	–	–
[3], 293.15 K, x1 = 0.9785	1120.58	–	–
[3], 298.15 K, x1 = 0.0564	817.52	–	–
[3], 298.15 K, x1 = 0.1213	835.59	–	–
[3], 298.15 K, x1 = 0.2541	873.9	–	–
[3], 298.15 K, x1 = 0.3003	887.63	–	–
[3], 298.15 K, x1 = 0.3895	914.8	–	–
[3], 298.15 K, x1 = 0.4574	936.03	–	–
[3], 298.15 K, x1 = 0.5005	949.73	–	–
[3], 298.15 K, x1 = 0.5876	978.07	–	–
[3], 298.15 K, x1 = 0.6442	996.91	–	–
[3], 298.15 K, x1 = 0.7127	1020.25	–	–
[3], 298.15 K, x1 = 0.8006	1050.96	–	–
[3], 298.15 K, x1 = 0.8554	1070.55	–	–
[3], 298.15 K, x1 = 0.9262	1096.44	–	–
[3], 298.15 K, x1 = 0.9785	1115.89	–	–
[3], 303.15 K, x1 = 0.0564	814	–	–
[3], 303.15 K, x1 = 0.1213	831.99	–	–
[3], 303.15 K, x1 = 0.2541	870.15	–	–
[3], 303.15 K, x1 = 0.3003	883.83	–	–
[3], 303.15 K, x1 = 0.3895	910.88	–	–
[3], 303.15 K, x1 = 0.4574	932.02	–	–
[3], 303.15 K, x1 = 0.5005	945.67	–	–
[3], 303.15 K, x1 = 0.5876	973.9	–	–
[3], 303.15 K, x1 = 0.6442	992.68	–	–
[3], 303.15 K, x1 = 0.7127	1015.92	–	–
[3], 303.15 K, x1 = 0.8006	1046.52	–	–
[3], 303.15 K, x1 = 0.8554	1066.03	–	–
[3], 303.15 K, x1 = 0.9262	1091.83	–	–
[3], 303.15 K, x1 = 0.9785	1111.21	–	–
[3], 313.15 K, x1 = 0.0564	805.57	–	–
[3], 313.15 K, x1 = 0.1213	823.45	–	–
[3], 313.15 K, x1 = 0.2541	861.53	–	–
[3], 313.15 K, x1 = 0.3003	875.2	–	–
[3], 313.15 K, x1 = 0.3895	902.14	–	–
[3], 313.15 K, x1 = 0.4574	923.19	–	–
[3], 313.15 K, x1 = 0.5005	936.83	–	–
[3], 313.15 K, x1 = 0.5876	964.91	–	–
[3], 313.15 K, x1 = 0.6442	983.59	–	–
[3], 313.15 K, x1 = 0.7127	1006.75	–	–
[3], 313.15 K, x1 = 0.8006	1037.12	–	–
[3], 313.15 K, x1 = 0.8554	1056.44	–	–
[3], 313.15 K, x1 = 0.9262	1081.97	–	–
[3], 313.15 K, x1 = 0.9785	1101.4	–	–
